Each compound was assayed on human KRAS G12C mutated cell line MIA PaCa-2 (assay: Inhibition of proliferation of MIA PaCa-2 cells (CellTiter-Glo, 7 day)). Details: 168 h, Table 4, 7 day, mean, read-out: MIA PaCa-2 IC50 (μM) 7 day Mean.
Type: cell-based
In short: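 MIA PaCa-2 cells (RPMI-1640, 10% FBS) seeded at about 1000 cells/well; eight compound concentrations in duplicate added 2 h later, with media and compound refreshed on day 3. ATP-luminescence viability read on day 7 by CellTiter-Glo; % inhibition relative to 0.2% DMSO control.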

IC50 [µM]	SMILES
> 1	C[C@@H]1CNCCN1c1nc(OC[C@@]23CCCN2C[C@H](F)C3)nc2cc(-c3c(O)cccc3C3CC3)cnc12 [Compound 413]
> 1	Oc1cc(Cl)c(C2CC2)c(-c2cnc3c(N4CCNCC45CC5)nc(OC[C@@]45CCCN4C[C@H](F)C5)nc3c2)c1 [Compound 414, 3-chloro-4-cyclopropyl-5-[4-(4,7-diazaspiro[2.5]octan-4-yl)-2-[[(2R,8S)-2-fluoro-1,2,3,5,6,7-hexahydropyrrolizin-8-yl]methoxy]pyrido[3,2-d]pyrimidin-7-yl]phenol]
> 1	N#C[C@H]1CNCCN1c1nc(OC[C@@]23CCCN2C[C@H](F)C3)nc2c(F)c(-c3cc(O)cc(Cl)c3C3CC3)ccc12 [Compound 415, (2R)-1-[7-(3-chloro-2-cyclopropyl-5-hydroxy-phenyl)-8-fluoro-2-[[(2R,8S)-2-fluoro-1,2,3,5,6,7-hexahydropyrrolizin-8-yl]methoxy]quinazolin-4-y1]piperazine-2-carbonitrile]
> 1	N#CC1CNCCN1c1nc(OC[C@@]23CCCN2C[C@H](F)C3)nc2cc(-c3cc(O)cc(Cl)c3C3CC3)cnc12 (stereo partly drawn) [Compound 416, 1-[7-(3-chloro-2-cyclopropyl-5-hydroxy-phenyl)-2-[[(2R,8S)-2-fluoro-1,2,3,5,6,7-hexahydropyrrolizin-8-yl]methoxy]pyrido[3,2-d]pyrimidin-4-yl]piperazine-2-carbonitrile]
> 1	Oc1cc(Cl)c(C2CC2)c(-c2cc3nc(OC[C@@]45CCCN4C[C@H](F)C5)nc(N4C[C@H]5C[C@@H]4CN5)c3cc2F)c1 [Compound 417]
> 1	Oc1cccc(Cl)c1-c1cc(F)c2c(N3C[C@H]4C[C@@H]3CN4)nc(OC[C@@]34CCCN3C[C@H](F)C4)nc2c1 [Compound 418]
> 1	Oc1cccc(Cl)c1-c1cc(F)c2c(N3CCNCC34CC4)nc(OC[C@@]34CCCN3C[C@H](F)C4)nc2c1 [Compound 419, 3-chloro-2-[4-(4,7-diazaspiro[2.5]octan-4-yl)-5-fluoro-2-[[(2R,8S)-2-fluoro-1,2,3,5,6,7-hexahydropyrrolizin-8-yl]methoxy]quinazolin-7-yl]phenol]
> 1	Oc1cccc(Cl)c1-c1cc(OCC23CCCN2C[C@H](F)C3)c2c(N3CCNCC34CC4)nc(OC[C@@]34CCCN3C[C@H](F)C4)nc2c1 (stereo partly drawn) [Compound 420, 3-chloro-2-[4-(4,7-diazaspiro[2.5]octan-4-yl)-5-[[(2R)-2-fluoro-1,2,3,5,6,7-hexahydropyrrolizin-8-yl]methoxy]-2-[[(2R,8S)-2-fluoro-1,2,3,5,6,7-hexahydropyrrolizin-8-yl]methoxy]quinazolin-7-yl]phenol]
> 1	Fc1cc2c(N3CCNC4(CC4)C3)nc(OC[C@@]34CCCN3C[C@H](F)C4)nc2cc1-c1cccc2cccc(Cl)c12 [Compound 421, 7-(8-chloro-1-naphthyl)-4-(4,7-diazaspiro[2.5]octan-7-y1)-6-fluoro-2-[[(2R,8S)-2-fluoro-1,2,3,5,6,7-hexahydropyrrolizin-8-yl]methoxy]quinazoline]
> 1	F[C@H]1CN2CCC[C@@]2(COc2cc(N3C[C@H]4C[C@@H]3CN4)c3ncc(-c4cccc5cccc(Cl)c45)cc3n2)C1 [Compound 422, 7-(8-chloro-1-naphthyl)-4-[(1R,4R)-2,5-diazabicyclo[2.2.1]heptan-2-y1]-2-[[(2R,8S)-2-fluoro-1,2,3,5,6,7-hexahydropyrrolizin-8-yl]methoxy]-1,5-naphthyridine]
> 1	Oc1cc(Cl)c(C2CC2)c(-c2ccc3c(N4C[C@H]5C[C@@H]4CN5)nc(OC[C@@]45CCCN4C[C@H](F)C5)nc3c2F)c1 [Compound 424, 3-chloro-4-cyclopropyl-5-[4-[(1R,4R)-2,5-diazabicyclo[2.2.1]heptan-2-y1]-8-fluoro-2-[[(2R,8S)-2-fluoro-1,2,3,5,6,7-hexahydropyrrolizin-8-yl]methoxy]quinazolin-7-yl]phenol]

SMILES	IC50 [µM]
F[C@H]1CN2CCC[C@@]2(COc2nc(N3CC4CCC(C3)N4)c3ccc(-c4cccc5cccc(Cl)c45)cc3n2)C1 [Compound 423]	> 1
